Assay results published in patent US6514964B1, “Fused cycloheptane and fused azacycloheptane compounds and their methods of use” (Amgen Inc., priority 1999, dated 2003).

Tested on: human umbilical cord endothelial cells (HUVEC)
Assay: HUVEC proliferation assay and/or HUVEC adhesion assay
Format: cell-based
Settings: bound stated for the listed compounds
Protocol: HUVEC Proliferation Assay
1. Coat 3 NUNC polystyrene 96 well plate (VWR, 62409-120; lids 62409-118) with vitronectin (purified internally), fibronectin (Collaborative Biomed 40008A) or fibrinogen (Calbiochem 341578) 50 ng/well in 50 μl PBS, 1 hr @ RT.
a. rinse with 5 mls PBS (no Ca, Mg)
3. Rinse vitronectin plates 1× in 200 μl PBS −/− and add 3000 cells per well in 100 ul growth medium (EBM2 (Clonetics, CC-3156)+EGM2 bullet kit (CC-4176)).
4. Incubate 24 hours at 37° C. to allow attachment.
5. Remove growth medium and add 100 μl growth medium+drugs (25 μM and down by five fold steps in DMSO-0.25% final DMSO concentration).
6. Incubate for 3 days changing media (+drugs).
7. Remove non-adherent cells on Friday with Raindance 12 well plate washer.
8. Wash twice with 200 μl PBS (+Mg & Ca).
9. Tap out excess liquid.
10. Freeze @ −70° C. for 30 minutes.
11. Thaw plate and add 150 μl CyQuant fluorescent dye (Molecular Probes C-7026).
12. Read after 4 minutes @ 485λ (excitation), 530λ (emission).
1. Coat 2 NUNC polystyrene 96 well plates (VWR, 62409-120; lids 62409-118) with 50 μl vitronectin (purified internally) at 50 ng/well in PBS (−Mg & Ca), for 1 hour @ 37° C.
2. Rinse with PBS & block with 150 μl PBS/1% BSA (Sigma A8918), 1 hour at @ 37° C.
3. Prepare drug dilutions:
a. 400 fold concentrate in 100% DMSO
b. 0.25% DMSO [assay]final
c. 10 mM & down (25 μMfinal & down)
d. dilute 1 μl of 400 fold conc into 200 μl adhesion media
a. rinse with 5 ml PBS (no Ca, Mg)
6. Rinse blocking buffer from assay plate and add 50 μl of drug dilutions.
7. Resuspend cells in adhesion media, count and add 2e4 cells/well in 50 μl (4e5/ml).
8. Incubate 60 minutes @ 37° C.
9. Remove non-adherent cells with Raindance 12 well plate washer.
10. Wash twice with 200 μl PBS (+Mg & Ca)
11. Tap out excess liquid.
12. Freeze @ −70° C. for 30 minutes to overnite.
13. Thaw plate and add 150 μl CyQuant fluorescent dye (Molecular Probes C-7026).
14. Read after 2-5 minutes @ 485λ (excitation), 530λ (emission).
Adhesion medium: Media 199 (which contains […] and 0.8 mM MgSO4), 0.5% BSA, 10 mM HEPES, 1 mM MgCl2, and 1 mM MnCl2

SMILES	IC50
CC(C)N(CCc1ccc2c(n1)NCCC2)C(=O)N1CCC(CC(=O)O)c2ccccc2C1 (stereo not drawn) [Example 41, 2-{2-[N-(methylethyl)-N-(2-(1,2,3,4-tetrahydroyridino[2,3-b]pyridin-7-yl)ethyl)carbamoyl]-1H,3H,4H,5H-benzo[e]azepin-5-yl]acetic acid]	≤ 30 µM
O=C(O)CC1CCN(C(=O)NCCCCNC(=O)NCc2ccccc2)Cc2ccccc21 (stereo not drawn) [2-{2-[N-(4-{[benzylamino]carbonylamino}butyl)carbamoyl]-1H, 3H, 4H, 5H-benzo[e]azepin-5-yl}acetic acid]	≤ 30 µM
O=C(O)CC1CCN(C(=O)NCCCc2ccc3c(n2)NCCC3)Cc2cc(F)ccc21 (stereo not drawn) [Example 24, 2-(8-fluoro-2-(N-(3-(1,2,3,4-tetrahydropyridino [2,3,b]pyridin-7-yl)propyl)carbamoyl)-1H,3H,4H,5H-benzo[e]azaperhydroepin-5-yl)acetic acid]	≤ 30 µM
CN(CCCCNc1ccccn1)C(=O)N1CCC(CC(=O)O)c2ccccc2C1 (stereo not drawn) [Example 5, 2-(2-(N-methyl—N-(4-(2-pyridylamino)but-1-yl)carbamoyl)-1H,3H,4H,5H-benzo[e]azapin-5-yl)acetic acid]	≤ 30 µM
COc1ccc2c(c1)CN(C(=O)NCCCc1ccc3c(n1)NCCC3)CCC2CC(=O)O (stereo not drawn) [Example 71, 2-(8-methoxy-2-(N-(3-(1,2,3,4-tetrahydropyridino[2,3,b]pyridin-7-yl)propyl)carbamoyl)-1H,3H,4H,5H-benzo[e]azaperhydroepin-5-yl) acetic acid]	≤ 30 µM
O=C(O)CC1CCN(C(=O)N2CCC(CNc3ccccn3)CC2)Cc2ccccc21 (stereo not drawn) [Example 7, 2-(2-(((4-(2-pyridylamino)methyl)piperid-1-yl)carbonyl)-1H,3H,4H,5H-benzo[e]azapin-5-yl)acetic acid]	≤ 30 µM
O=C(O)CC1Cn2cc(C(=O)NCc3cnc4c(c3)CCCN4)nc2Cc2ccccc21 (stereo not drawn) [Example 66, 2-{2-[N-(1,2,3,4-tetrahydropyridino [2,3-b]pyridin-6-ylmethyl)carbamoyl]-4H,5H,10H-benzo[d]imidazolo[1,2-a]azepin-5-yl}acetic acid]	≤ 30 µM
O=C(O)CC1CCN(C(=O)NCCCc2ccc3c(n2)NCCC3)Cc2cc(OCc3ccccc3)ccc21 (stereo not drawn) [Example 72]	≤ 30 µM
O=C(O)CC1CCN(C(=O)NCCCc2ccc3c(n2)NCCC3)Cc2cc(Br)ccc21 (stereo not drawn) [Example 79, 2-{8-Bromo-2-[N-(3-(1,2,3,4-tetrahydropyridino[2,3-b]pyridin-7-yl)propyl)carbamoyl]-1H,3H,4H,5H-benzo[e]azepin-5-yl}acetic acid]	≤ 30 µM
O=CNc1ccc2c(c1)CN(C(=O)NCCCc1ccc3c(n1)NCCC3)CCC2CC(=O)O (stereo not drawn) [Example 83, 2-{8-Carbonylamino-2-[N-(3-(1,2,3,4-tetrahydropyridino[2,3-b]pyridin-7-yl)propyl)carbamoyl]-1H,3H,4H,5H-benzo[e]azepin-5-yl}acetic acid]	≤ 30 µM
O=C(O)CC1CCN(C(=O)NCCCCNC2=NCCN2)Cc2ccccc21 (stereo not drawn) [Example 75, 2-(2-(N-(4-(4,5-dihydroimidazo-2-yl)aminobut-1-yl)carbamoyl)-1H,3H,4H-5H-benzo[e]azapin-5-yl)acetic acid]	≤ 30 µM
CS(=O)(=O)Nc1ccc2c(c1)CN(C(=O)NCCCc1ccc3c(n1)NCCC3)CCC2CC(=O)O (stereo not drawn) [Example 81, 2-{8-[(Methylsulfonyl)amino]-2-[N-(3-(1,2,3,4-tetrahydropyridino[2,3-b]pyridin-7-yl)Propyl)carbamoyl]-1H,3H,4H,5H-benzo[e]azepin-5-yl}acetic acid]	≤ 30 µM
O=C(O)CC1CCN(C(=O)NCCCCNc2ccccn2)Cc2ccccc21 (stereo not drawn) [Example 3, 2-(2-(N-(4-(2-pyridylamino)butyl)carbamoyl)-1H,3H,4H,5H-benzo[e]azapin-5-yl)acetic acid]	≤ 30 µM
O=C(O)CC1CN(C(=O)NCCc2ccc3c(n2)NCCC3)CCc2ccccc21 (stereo not drawn) [2-(3-(N-(2-(1,2,3,4-tetrahydropyridino[2,3-b]pyridin-7-yl)ethyl)carbamoyl)-1H, 2H, 4H, 5H-benzo[d]azepin-1-yl}acetic acid]	≤ 30 µM
O=C(O)C[C@@H]1CCN(C(=O)CCCc2ccc3c(n2)NCCC3)Cc2ccccc21 [Example 55]	≤ 30 µM
CC(C)N(CCc1ccc2c(n1)NCCC2)C(=O)c1cn2c(n1)Cc1ccccc1C(CC(=O)O)C2 (stereo not drawn) [Example 64, 2-{2-[N-(methylethyl)-N-(2-(1,2,3,4-tetrahydropyridino[2,3-b]pyridin-7-yl)ethyl)carbamoyl]-4H,5H,10H-benzo[d]imidazolo[1,2-a]azepin-5-yl}acetic acid]	≤ 30 µM
O=C(O)CC1CCN(C(=O)NCCCc2ccc3c(n2)NCCC3)Cc2cc(Cl)ccc21 (stereo not drawn) [Example 78, 2-{8-Chloro-2-[N-(3-(1,2,3,4-tetrahydropyridino[2,3-b]pyridin-7-yl)propyl)carbamoyl]-1H,3H,4H,5H-benzo[e]azepin-5-yl}acetic acid]	≤ 30 µM
O=C(O)C[C@H]1CCN(C(=O)NCCCc2ccc3c(n2)NCCC3)Cc2ccccc21 [Example 52, 2-((5R)-2-(N-(3-(1,2,3,4-tetrahydropyridino(2,3-b)pyridin-7-yl)prop-1-yl)carbamoyl)-1H,3H,4H,5H-benzo[e]azapin-5-yl)acetic acid]	≤ 30 µM
Cc1cccc(NCCCCNC(=O)N2CCC(CC(=O)O)c3ccccc3C2)n1 (stereo not drawn) [Example 9, 2-(2-(N-(4-((6-methyl-2-pyridyl)amino)but-1-yl)carbamoyl)-1H,3H,4H,5H-benzo[e]azapin-5-yl)acetic acid]	≤ 30 µM
O=C(O)CC1CCN(C(=O)OCCCCNc2ccccn2)Cc2ccccc21 (stereo not drawn) [Example 20, 2-(2-(4-(2-pyridylamino)but-1-oxycarbonyl)-1H,3H,4H,5H-benzo[e]azapin-5-yl)acetic acid]	≤ 30 µM
O=C(O)CC1CCN(S(=O)(=O)NCCc2ccc3c(n2)NCCC3)Cc2ccccc21 (stereo not drawn) [Example 45, 2-(2-(((2-(1,2,3,4-tetrahydropyridino(2,3-b)pyridin-7-yl)ethyl)amino)sulfonyl)-1H,3H,4H,5H-benzo[e]azain-5-yl)acetic acid]	≤ 30 µM
O=C(O)CC1CCN(C(=O)CCCc2ccc3c(n2)NCCC3)Cc2ccccc21 (stereo not drawn) [Example 56, 2-[2-(4-(1,2,3,4-tetrahydropyridino[2,3-b]pyridin-7-yl)butanoyl)-1H,3H,4H,5H-benzo[e]azepin-5-yl]acetic acid]	≤ 30 µM
O=C(O)CC1CN(C(=O)NCCCc2ccc3c(n2)NCCC3)CCc2ccccc21 (stereo not drawn) [Example 30, 2-{3-(N-(3-(1,2,3,4-tetrahydropyridino[2,3-b]pyridin-7-yl)propyl)carbamoyl)-1H,2H,4H,5H-benzo[d]azepin-1-yl}acetic acid]	≤ 30 µM
O=C(O)CC1CCN(C(=O)NCCCCCNc2ccccn2)Cc2ccccc21 (stereo not drawn) [Example 4, 2-(2-(N-(5-(2-pyridylamino)pent-1-yl)carbamoyl)-1H,3H,4H,5H-benzo[e]azapin-5-yl)acetic acid]	≤ 30 µM
COc1ccc2c(c1)CN(C(=O)NCCCCNc1ccccn1)CCC2CC(=O)O (stereo not drawn) [Example 22, 2-(8-methoxy-2-(N-(4-(2-pyridylamino)but-1-yl)carbamoyl)-1H,3H,4H,5H-benzo[e]azaerhydroepin-5-yl)acetic acid]	≤ 30 µM
CC(C)N(Cc1cnc2c(c1)CCCN2)C(=O)c1cn2c(n1)Cc1ccccc1C(CC(=O)O)C2 (stereo not drawn) [Example 65, 2-{2-[N-(methylethyl)-N-(1,2,3,4tetrahydropyridino[2,3-b]pyridine-6-ylmethyl)carbamoyl]-4H,5H,10H-benzo[d]imidazolo[1,2-a]azepin-5-yl}acetic acid]	≤ 30 µM
O=C(O)CC1CCN(C(=O)NCCCNc2ccccn2)Cc2ccccc21 (stereo not drawn) [Example 2, 2-(2-(N-(3-(2-pyridylamino)propyl)carbamoyl)-1H,3H,4H,5H-benzo[e]azain-5-yl)acetic acid]	≤ 30 µM
O=C(O)CC1CCN(C(=O)NC2CCC(Nc3ccccn3)CC2)Cc2ccccc21 (stereo not drawn) [Example 6, 2-(2-(N-(4-(2-pyridylamino)-trans-cyclohexyl)carbamoyl)-1H,3H,4H,5H-benzo[e]azapin-5-yl)acetic acid]	≤ 30 µM
O=C(O)CC1CN(C(=O)NCCCCCNc2ccccn2)CCc2ccccc21 (stereo not drawn) [Example 29, 2-(3-{N-(5-(2-pyridylamino)pent-1-yl)carbamoyl}-1H,2H,4H,5H-benzo[d]azepinyl)acetic acid]	≤ 30 µM
O=C(O)CC1CN(CC(=O)NCCCCNc2ccccn2)CCc2ccccc21 (stereo not drawn) [Example 27, 2-(3-({N-(4-(2-pyridylamino)but-1-yl)carbamoyl}methyl)-1H,2H,4H,5H-benzo[d]azepin-1-yl) acetic acid]	≤ 30 µM
